Values of other authors as cited in patent US11446359B2, “Systems and methods for cardiac plexus neuromodulation” (Tulavi Therapeutics, Inc., priority 2015, dated 2022).

How the values were obtained:
asthma [1] = test system: asthma
lumbar chain = details: remaining 4 required a second block
asthma [2] = test system: asthma; remark: listed apart in the source
[3] = test system: thoracic sympathetic ganglia and rami
[4] = 2.5 ml 0.25% with epinephrine
axons and Schwann cells = details: in vivo
[5] = in vivo

CCO [absolute alcohol, ethanol]
patients with complete disappearance of asthma (asthma [1]; case studies, n=5, 2.5 cc absolute alcohol per injection): 100%
cases with complete relief (asthma [1]; further work, 13/18 cases): 72%
patients that required one injection only (lumbar chain): 19/23
patients free of asthma (asthma [2]; case studies, n=3, 1 cc absolute alcohol): 100%
cases that obtained complete relief (asthma [2]; further cases): 80%
patients with complete relief ([3]; 23 cases): 75%
cases with cure or dramatic improvement in asthma ([3]; severe intractable asthma cases (Levin 1935)): 75%

CCCCN1CCCCC1C(=O)Nc1c(C)cccc1C (centres unmarked) [Marcaine]
duration of relief [4]: 1 to 10 days
duration of relief, median [4]: 4 days

C[C@H](CCCC(C)(C)O)[C@H]1CC[C@H]2[C@@H]3CC=C4C[C@@H](O)CC[C@]4(C)[C@H]3CC[C@]12C [25-OH-cholesterol]
relative potency among cholesterol oxides (sympathetic ganglia): most potent

Oc1ccccc1 [phenol]
time at which regeneration in the periphery may begin (axons and Schwann cells): 2 weeks
bilateral sensory blockade [5]: 1.3%
intrathecal injection observed [5]: 0.52%
transient hypertension [5]: 4.6%
